Data taken from patent US8501816B2, “Antitussive compositions comprising memantine” (Cerecor, Inc., priority 2010, dated 2013).

Assays:
[1] = Pharmacokinetics of memantine after oral or buccal dosing in male beagle dogs (Example 2); format: in vivo, beagle dog; parameters: Cmax/Dose: unit not given beside the values
Protocol: The pharmacokinetics of memantine were evaluated after buccal administration in male beagle dogs. Memantine was formulated in water, 3.3 mg/mL sodium hydroxide in water, or 7.5 mg/mL sodium carbonate in water. All dogs received a 0.4 mg/kg dose of memantine. Plasma levels of memantine were determined by LC-MS/MS. Pharmacokinetic parameters were determined for the memantine plasma data.
For dosing, dogs were anesthetized with an IV injection of ketamine/diazepam, and maintained by isoflurane intubation during the buccal administration. The dosing solution was pipetted into a circular cylinder to concentrate the dosing solution on one area of the mucosa. At just prior to the 15 minute sample time point, the oral cavity was rinsed with 5 mL of water and dried with gauze Immediately after the rinse, the 15 minute sample was collected.

porcine buccal mucosa = assay: Memantine ex vivo buccal permeability; format: in vitro ADME
[2] = test system: freezing behavior during cued fear conditioning; assay: Cued fear conditioning in mice; format: in vivo
Protocol: The effects of memantine on enhancing cognition were investigated with fear conditioning tests on mice. Specifically, the fear conditioning test exposed mice to a conditioned stimulus (a tone) and an unconditioned stimulus (a mild electric shock). The mice learned to associate the tone with the shock as reflected by freezing. After being adequately conditioned, the mice were administered memantine or a control (vehicle alone). […] Fear Conditioning: Fear conditioning mouse chambers (7''W×7''D×12''H; Coulbourne Instruments, […] Valley, Pa.) were housed in sound attenuating chambers. A camera was mounted on the ceiling of the chamber to capture mouse behavior (FreezeFrame software, Coulbourne Instruments, […] Valley, Pa.); data were analyzed by Freezeview software (Coulbourne Instruments, […] Valley, Pa.). Fear conditioning chambers were calibrated prior to each experiment to ensure that each chamber delivers the same shock intensity. […] Pavlovian fear conditioning refers to the learning of associations between a negative reinforcer (e.g., a mild electric foot shock/s), a novel context (e.g. a context) and/or a specific, neutral, cue (e.g., tone or white noise). To assess contextual and cued (tone) learning and memory, a standardized fear conditioning task developed for the evaluation of memory in rodents was used. Protocol: […] Cue-induced Conditioning Testing: Mice were tested for cued memory 48 hours after training. The cued conditioning test was conducted in an altered context (i.e., a different test chamber). […] Statistical Analysis: Data are represented as the mean and standard error to the mean. Data were analyzed by analysis of variance (ANOVA) followed by Fisher PLSD, or unpaired t-tests, when appropriate to test a planned comparison. An effect was considered significant if p<0.05. Statistical outliers that fell above or below two standard deviations from the mean were removed from the final analysis.

[3] = around pH 6.0; cited from earlier work
native NMDA receptors = details: in vitro; cited from earlier work
[4] = test system: recombinant human histamine receptors; details: in vitro; cited from earlier work
[5] = cited from earlier work
[6] = male, beagle, dog, plasma, 0.4 mg/kg, MMT 0.4 mg/kg Buccal + 7.5 mg/ml Na2CO3
[7] = male, beagle, dog, plasma, 0.4 mg/kg, MMT 0.4 mg/kg Buccal, Control (water)

CC12CC3CC(C)(C1)CC(N)(C3)C2 [Memantine, 3,5-dimethyltricyclo[3.3.1.1^3,7]decan-1-amine]
Cmax/Dose ([1]; MMT 0.4 mg/kg Buccal + 3.3 mg/ml NaOH): 12.9
Cmax/Dose ([1]; MMT 0.4 mg/kg Buccal, Control (water)): 6.7
AUC(0-inf) [1, 6]: 184 ng·h/mL
Cmax [1, 6]: 54 ng/mL
AUC(0-inf) [1, 7]: 125 ng·h/mL
AUC(0-t) [1, 7]: 119 ng·h/mL
increase in permeability of memantine (porcine buccal mucosa; increase in pH from 5.5 to 9.0): over 100 fold
increase in permeability of memantine (porcine buccal mucosa; increase in pH from 8.0 to 9.0): about 3.8 fold
cue-induced fear conditioning, CS phase, vs vehicle-diphenhydramine 20 mg/kg ([2]; memantine 10 mg/kg IP + diphenhydramine 20 mg/kg): significantly increased cue-induced fear conditioning
post-CS freezing vs vehicle-diphenhydramine ([2]; memantine 20 mg/kg plus diphenhydramine): strong trend (p=0.052) toward a significant increase in post-CS freezing
ionization [3]: completely ionized
potency of antagonism (native NMDA receptors): micromolar potency
effect at receptors [4]: no effect
plasma memantine concentrations at steady state ([5]; conventional memantine dosage forms): 70 to 150 ng/mL
Total renal clearance ([5]; healthy volunteers): approximately 170 mL/min/1.70 m^2
bound to plasma proteins ([5]; in vivo): about 45%
mean volume of distribution ([5]; in vivo): about 10 L/kg
bioavailability ([5]; oral, conventional memantine): > 100%
